Laboratory results as given in patent publication US10858352B2, “Pharmaceutical compounds” (Heptares Therapeutics Limited, priority 2018, dated 2020).
Where two headings read alike, the source gives them in different places.

Key:
Format in all cases: cell-based
[1] = target: T1, human muscarinic M4 receptor (Homo sapiens, UniProt P08173); experiment: Alphascreen Surefire phospho-ERK1/2 functional assay, M4; details: for EC50 / % Emax cf. ACh (M4) / pEC50 M4: CHO cells stably expressing human M4; for EC50 / pEC50 M4: agonist 5 min, 37° C.; for EC50: read-out: pEC50 M4 (converted)
T1 construct: expressed in transfected cells
T1 sequence (P08173 1-479): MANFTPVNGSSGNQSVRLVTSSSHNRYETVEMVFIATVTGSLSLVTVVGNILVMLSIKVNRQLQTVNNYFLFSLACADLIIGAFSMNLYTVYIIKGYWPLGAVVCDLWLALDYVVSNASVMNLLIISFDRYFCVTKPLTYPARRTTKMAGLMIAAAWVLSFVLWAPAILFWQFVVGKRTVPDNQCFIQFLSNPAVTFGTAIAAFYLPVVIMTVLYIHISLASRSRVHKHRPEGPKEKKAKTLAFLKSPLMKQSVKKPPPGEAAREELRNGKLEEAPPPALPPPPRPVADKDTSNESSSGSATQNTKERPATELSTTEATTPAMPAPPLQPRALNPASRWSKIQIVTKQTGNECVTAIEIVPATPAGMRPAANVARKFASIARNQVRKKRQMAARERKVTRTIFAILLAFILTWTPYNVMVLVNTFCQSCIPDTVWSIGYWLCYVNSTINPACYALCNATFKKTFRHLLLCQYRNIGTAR
Outline: (§1)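 CHO cells stably expressing human M1, M2, M3 or M4 receptor, serum-starved overnight, then stimulated with agonist for 5 min at 37 °C. Cells lysed for 15 min and phospho-ERK1/2 detected in the lysate by AlphaScreen SureFire.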

[2] = target: T2, human muscarinic M1 receptor (Homo sapiens, UniProt P11229); experiment: Alphascreen Surefire phospho-ERK1/2 functional assay, M1; details: for EC50 / pEC50 M1: agonist 5 min, 37° C.
T2 sequence (P11229 1-460): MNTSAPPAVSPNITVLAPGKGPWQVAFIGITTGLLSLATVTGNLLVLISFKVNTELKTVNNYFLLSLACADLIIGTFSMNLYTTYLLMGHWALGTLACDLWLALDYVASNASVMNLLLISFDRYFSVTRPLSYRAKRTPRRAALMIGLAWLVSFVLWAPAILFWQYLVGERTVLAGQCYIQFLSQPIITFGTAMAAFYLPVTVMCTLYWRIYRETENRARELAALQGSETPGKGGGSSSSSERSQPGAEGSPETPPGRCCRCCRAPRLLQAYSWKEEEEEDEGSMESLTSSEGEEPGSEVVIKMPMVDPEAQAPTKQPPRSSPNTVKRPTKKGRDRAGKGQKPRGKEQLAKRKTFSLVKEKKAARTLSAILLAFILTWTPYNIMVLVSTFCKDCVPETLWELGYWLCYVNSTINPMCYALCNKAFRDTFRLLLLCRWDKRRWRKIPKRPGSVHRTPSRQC
Outline: as §1

[3] = target: T3, human muscarinic M3 receptor (Homo sapiens, UniProt P20309); experiment: Alphascreen Surefire phospho-ERK1/2 functional assay, M3; details: for Emax: CHO, read-out: % Emax cf. ACh (M3); for % Emax cf. ACh (M3): Emax relative to ACh
T3 construct: expressed in transfected cells
T3 sequence (P20309 whole entry): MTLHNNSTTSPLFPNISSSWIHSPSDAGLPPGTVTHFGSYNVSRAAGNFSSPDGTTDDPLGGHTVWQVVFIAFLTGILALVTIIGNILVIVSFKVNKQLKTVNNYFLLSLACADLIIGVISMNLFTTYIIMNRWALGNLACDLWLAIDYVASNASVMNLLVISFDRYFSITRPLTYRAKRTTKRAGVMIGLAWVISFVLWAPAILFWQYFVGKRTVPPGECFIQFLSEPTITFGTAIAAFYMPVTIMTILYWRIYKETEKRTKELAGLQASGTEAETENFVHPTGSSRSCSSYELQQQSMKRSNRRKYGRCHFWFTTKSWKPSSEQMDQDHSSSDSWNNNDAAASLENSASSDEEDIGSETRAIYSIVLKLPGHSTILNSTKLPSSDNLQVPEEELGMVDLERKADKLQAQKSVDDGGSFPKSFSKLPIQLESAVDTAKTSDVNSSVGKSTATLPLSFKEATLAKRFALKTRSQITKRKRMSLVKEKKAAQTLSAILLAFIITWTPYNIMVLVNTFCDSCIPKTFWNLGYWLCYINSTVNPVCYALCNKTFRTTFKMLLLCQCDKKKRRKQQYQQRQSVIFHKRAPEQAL
Experimental: (§2) ERK1/2 phosphorylation is a downstream consequence of both Gq/11 and Gi/o protein coupled receptor activation, making it highly suitable for the assessment of M1, M3 (Gq/11 coupled) and M2, M4 receptors (Gi/o coupled), rather than using different assay formats for different receptor subtypes. CHO cells stably expressing the human muscarinic M1, M2, M3 or M4 receptor were plated (25K/well) onto 96-well tissue culture plates in MEM-alpha+10% dialysed FBS. Once adhered, cells were serum-starved overnight. Agonist stimulation was performed by the addition of 5 μL agonist to the cells for 5 min (37° C.). Media was removed and 50 μL of lysis buffer added. After 15 min, a 4 μL sample was transferred to 384-well plate and 7 μL of detection mixture added. […]

[4] = target: T4, human muscarinic M2 receptor (Homo sapiens, UniProt P08172); experiment: Alphascreen Surefire phospho-ERK1/2 functional assay, M2; details: for Emax: CHO, read-out: % Emax cf. ACh (M2); for % Emax cf. ACh (M2): Emax relative to ACh
T4 sequence (P08172 1-466): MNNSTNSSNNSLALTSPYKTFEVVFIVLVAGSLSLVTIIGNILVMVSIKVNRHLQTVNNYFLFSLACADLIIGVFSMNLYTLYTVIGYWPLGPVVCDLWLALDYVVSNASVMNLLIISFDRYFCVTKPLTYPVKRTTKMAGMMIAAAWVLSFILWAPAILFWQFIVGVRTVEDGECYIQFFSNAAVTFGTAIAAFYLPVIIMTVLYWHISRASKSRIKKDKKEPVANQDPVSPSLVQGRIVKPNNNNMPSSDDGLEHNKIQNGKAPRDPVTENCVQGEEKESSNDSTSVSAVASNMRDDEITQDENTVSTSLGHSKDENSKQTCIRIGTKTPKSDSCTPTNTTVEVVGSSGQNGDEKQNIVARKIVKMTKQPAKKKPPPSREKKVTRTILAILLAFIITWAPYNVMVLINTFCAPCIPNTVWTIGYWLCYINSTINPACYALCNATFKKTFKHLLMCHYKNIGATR
Experimental: as §2

[5] = CHO cells stably expressing human M1, Emax relative to ACh
[6] = CHO cells stably expressing human M1
[7] = CHO cells stably expressing human M3
[8] = CHO cells stably expressing human M3, agonist 5 min, 37° C.
[9] = CHO cells stably expressing human M2
[10] = CHO cells stably expressing human M2, agonist 5 min, 37° C.

`CCC1(NC(=O)C2CCN(C3CC4CCC(C3)N4c3nc(C)no3)CC2)CCC1` (single isomer, unassigned) [12-8 Isomer 2] gave an EC50 [1] of 933 nM, an Emax ([1]; CHO, read-out: % Emax cf. ACh (M4), CHO cells stably expressing human M4, Emax relative to ACh) of 109% and an EC50 ([2]; CHO cells stably expressing human M1, read-out: pEC50 M1 (converted)) of 135 nM. The Emax ([2]; CHO, read-out: % Emax cf. ACh (M1), CHO cells stably expressing human M1, Emax relative to ACh) was 104%, the EC50 ([3]; CHO cells stably expressing human M3, agonist 5 min, 37° C., read-out: pEC50 M3 (converted)) was greater than 20 µM and the Emax [3] was 3%. The EC50 ([4]; CHO cells stably expressing human M2, agonist 5 min, 37° C., read-out: pEC50 M2 (converted)) was 2450 nM and the Emax [4] was 33%.

For `CC1(NC(=O)C2CCN(C3CC4CCC(C3)N4c3nc(C(F)(F)F)no3)CC2)CCC1` (single isomer, unassigned) [12-14 Isomer 2], the “% Emax cf. ACh (M4)” value ([1]; Emax relative to ACh) was “(40) %”, the EC50 [1] was 331 nM and the “% Emax cf. ACh (M1)” value [2, 5] was “(115) %”. For the same molecule, the EC50 ([2]; pEC50 M1, CHO cells stably expressing human M1) was 18.6 nM, the EC50 [3] was greater than 20 µM and the Emax [3] was 9%. For the same molecule, the EC50 [4] was greater than 20000 nM and the Emax [4] was 25%.

For `CC(=O)N(CC1(C)CCC1)C1CCN(C2CC3CCC(C2)N3c2nc(C)no2)CC1` (single isomer, unassigned; isomer 1) [12-18 Isomer 1], the “% Emax cf. ACh (M4)” value ([1]; Emax relative to ACh) was “(62) %”, the “pEC50 M4” value [1] was 6.68 and the “% Emax cf. ACh (M1)” value [2, 5] was “(87) %”. The “pEC50 M1” value [2, 6] was 7.00, the “% Emax cf. ACh (M3)” value [3, 7] was “(15) %” and the “pEC50 M3” value [3, 8] was less than 4.70. The “% Emax cf. ACh (M2)” value [4, 9] was “(27) %” and the “pEC50 M2” value [4, 10] was 5.23.

`CCN(CC)C(=O)[C@H]1[C@@H]2CN(C3CC4CCC(C3)N4c3nc(C)no3)C[C@@H]21` (single isomer, unassigned; isomer 1) [12-25 Isomer 1] was tested, and the “% Emax cf. ACh (M4)” value ([1]; Emax relative to ACh) was “(22) %”, the “pEC50 M4” value [1] was less than 4.70 and the “% Emax cf. ACh (M1)” value [2, 5] was “(102) %”. The “pEC50 M1” value [2, 6] was 6.70, the “% Emax cf. ACh (M3)” value [3, 7] was “(50) %” and the “pEC50 M3” value [3, 8] was less than 4.70. For the same molecule, the “% Emax cf. ACh (M2)” value [4, 9] was “(31) %” and the “pEC50 M2” value [4, 10] was less than 4.70.

`O=C1CC2(CCN(C3CC4CCC(C3)N4c3nc(C(F)(F)F)no3)CC2)CN1` (single isomer, unassigned; isomer 2) [12-3 Isomer 2] was tested, and the “% Emax cf. ACh (M4)” value ([1]; Emax relative to ACh) was “(23) %”, the “pEC50 M4” value [1] was 6.70 and the “% Emax cf. ACh (M1)” value [2, 5] was “(103) %”. For the same molecule, the “pEC50 M1” value [2, 6] was 8.30, the “% Emax cf. ACh (M3)” value [3, 7] was “(70) %” and the “pEC50 M3” value [3, 8] was less than 4.70. For the same molecule, the “% Emax cf. ACh (M2)” value [4, 9] was “(14) %” and the “pEC50 M2” value [4, 10] was less than 4.70.

For `CC(=O)N(CC1(C)CCC1)C1CCN(C2CC3CCC(C2)N3c2nc(C)no2)CC1` (single isomer, unassigned; isomer 2) [12-18 Isomer 2], the “% Emax cf. ACh (M4)” value ([1]; Emax relative to ACh) was “(92) %”, the “pEC50 M4” value [1] was 7.83 and the “% Emax cf. ACh (M1)” value [2, 5] was “(92) %”. The “pEC50 M1” value [2, 6] was 8.63, the “% Emax cf. ACh (M3)” value [3, 7] was “(48) %” and the “pEC50 M3” value [3, 8] was 5.72. For the same molecule, the “% Emax cf. ACh (M2)” value [4, 9] was “(90) %” and the “pEC50 M2” value [4, 10] was 6.59.

`Cc1noc(N2C3COCC2CC(N2C[C@@H]4[C@H](C2)[C@H]4C(=O)N(C)C(C)C)C3)n1` (single isomer, unassigned; isomer 2) [12-22 Isomer 2] was tested, and the “% Emax cf. ACh (M4)” value ([1]; Emax relative to ACh) was “(108) %”, the “pEC50 M4” value [1] was 6.23 and the “% Emax cf. ACh (M1)” value [2, 5] was “(102) %”. The “pEC50 M1” value [2, 6] was 8.06, the “% Emax cf. ACh (M3)” value [3, 7] was “(52) %” and the “pEC50 M3” value [3, 8] was 4.90. For the same molecule, the “% Emax cf. ACh (M2)” value [4, 9] was “(81) %” and the “pEC50 M2” value [4, 10] was 5.68.

`CCN(CC)C(=O)[C@H]1[C@@H]2CN(C3CC4COCC(C3)N4c3nc(C(F)(F)F)no3)C[C@@H]21` (single isomer, unassigned; isomer 2) [12-23 Isomer 2] was tested, and the “% Emax cf. ACh (M4)” value ([1]; Emax relative to ACh) was “(30) %”, the “pEC50 M4” value [1] was 6.92 and the “% Emax cf. ACh (M1)” value [2, 5] was “(132) %”. For the same molecule, the “pEC50 M1” value [2, 6] was 7.59, the “% Emax cf. ACh (M3)” value [3, 7] was “(25) %” and the “pEC50 M3” value [3, 8] was less than 4.70. For the same molecule, the “% Emax cf. ACh (M2)” value [4, 9] was “(13) %” and the “pEC50 M2” value [4, 10] was less than 4.70.

`CCN(C)C(=O)[C@H]1[C@@H]2CN(C3CC4CCC(C3)N4c3nc(C)no3)C[C@@H]21` (single isomer, unassigned; isomer 2) [12-24 Isomer 2] was tested, and the “% Emax cf. ACh (M4)” value ([1]; Emax relative to ACh) was “(83) %”, the “pEC50 M4” value [1] was 6.02 and the “% Emax cf. ACh (M1)” value [2, 5] was “(102) %”. For the same molecule, the “pEC50 M1” value [2, 6] was 7.58, the “% Emax cf. ACh (M3)” value [3, 7] was “(25) %” and the “pEC50 M3” value [3, 8] was less than 4.70. For the same molecule, the “% Emax cf. ACh (M2)” value [4, 9] was “(60) %” and the “pEC50 M2” value [4, 10] was 5.33.

For `CCN(CC)C(=O)[C@H]1[C@@H]2CN(C3CC4CCC(C3)N4c3nc(C)no3)C[C@@H]21` (single isomer, unassigned; isomer 2) [12-25 Isomer 2], the “% Emax cf. ACh (M4)” value ([1]; Emax relative to ACh) was “(119) %”, the “pEC50 M4” value [1] was 6.82 and the “% Emax cf. ACh (M1)” value [2, 5] was “(91) %”. The “pEC50 M1” value [2, 6] was 8.55, the “% Emax cf. ACh (M3)” value [3, 7] was “(57) %” and the “pEC50 M3” value [3, 8] was 5.29. For the same molecule, the “% Emax cf. ACh (M2)” value [4, 9] was “(84) %” and the “pEC50 M2” value [4, 10] was 6.15.
